Measured values from US4689326A, “Process for controlling hyperlipidemia” (Research Corporation, priority 1985, dated 1987).

Tests used:
[1] = system: HDL; experiment: Lipoprotein fractions in Rats, Example 11: HDL; type: in vivo, Sprague Dawley male rats; settings: oral 20 mg/kg/day, fourteen days, ± SD
Method: A group of six Sprague Dawley male rats were treated with 20 mg/kg/day of 3,4,5,6-dibenzohomopiperidine. The treatment was applied orally. An equal number of Sprague Dawley male rats, having approximately the same weight, were utilized as an untreated control. At the end of fourteen days the control and treated rats were sacrificed. Blood was collected from the abdominal aorta and lipoprotein fractions were obtained by the method of Hatch and Lees [Adv. Lipid Rees., 6, 1 (1968)] and Havel et al. [J. Clin Invest., 34, 1345 (1955)]. Each of the fractions were analyzed for cholesterol, triglycerides, neutral lipids, phospholipids and protein levels.

[2] = system: Feces; experiment: Lipid Extraction Studies in Rats, Example 11: feces; type: in vivo, Sprague Dawley male rats; settings: oral 20 mg/kg/day, fourteen days, ± SD
[3] = molecular target: T1, Cholesterol-7 Hydroxylase (Mus musculus, UniProt Q64505); experiment: In vitro enzyme activity, liver homogenate: cholesterol-7 hydroxylase; type: biochemical, CF1 male mouse; settings: ± SD, N = 6, read-out: Percent Control, in vitro enzyme activity
T1 construct: 10% homogenates of CF1 male mouse liver; from tissue; host or cells: CF1 male mouse liver, 10% homogenate
T1 sequence (Q64505 whole entry): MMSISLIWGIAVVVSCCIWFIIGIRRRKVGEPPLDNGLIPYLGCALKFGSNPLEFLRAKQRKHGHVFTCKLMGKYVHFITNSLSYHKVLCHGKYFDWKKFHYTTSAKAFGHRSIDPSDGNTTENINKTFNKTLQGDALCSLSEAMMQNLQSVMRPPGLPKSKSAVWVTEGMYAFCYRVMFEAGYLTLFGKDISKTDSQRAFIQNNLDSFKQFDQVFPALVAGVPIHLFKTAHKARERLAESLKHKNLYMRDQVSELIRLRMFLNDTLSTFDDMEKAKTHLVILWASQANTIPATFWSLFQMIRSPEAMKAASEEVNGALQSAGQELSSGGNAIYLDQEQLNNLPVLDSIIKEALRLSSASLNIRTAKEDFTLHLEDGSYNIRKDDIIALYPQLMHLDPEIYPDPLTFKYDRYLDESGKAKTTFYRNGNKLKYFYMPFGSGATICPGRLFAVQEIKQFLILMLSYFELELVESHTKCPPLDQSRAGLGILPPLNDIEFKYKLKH
Method: (§1) In vitro enzymatic studies were undertaken using 10% homogenates of CF1 male mouse liver with […] of compound 3,4,5,6-dibenzohomopiperidine. In addition, in vivo enzymatic studies were performed, again using 10% liver homogenates (prepared in 0.25 M sucrose plus 0.001 M (ethylenedinitrilo)-tetraacetic acid, ph 7.25 from CF1 male mice obtained after administering 3,4,5,6-dibenzohomopiperidine for 16 days at a concentration ranging from 10 to 60 mg/kg/day, intraperitoneally.
(§2) The following enzyme activities were determined by following standard literature procedures: acetyl coenzyme synthetase; adenosine triphosphate dependent citrate lyase; mitochondrial citrate exchange; cholesterol/7 hydroxylase; 3-hydroxy-3-methyl-glutaryl coenzyme A reductase; acetyl coenzyme A carboxylase activity; fatty acid synthetase activity; sn-glycerol-3-phosphate acyl transferase activity; phosphatidate phosphohydrolase activity; cholesterol acyl transferase; and heparin activated hepatic lypoprotein lipase. Protein was determined for all enzyme assays by the Lowry et al. technique (J. Biol. Chem, 193, 265 (1951)).

[4] = molecular target: T2, Acetyl CoA Carboxylase (Mus musculus, UniProt Q5SWU9); experiment: In vitro enzyme activity, liver homogenate: acetyl CoA carboxylase; type: biochemical, CF1 male mouse; settings: ± SD, N = 6, read-out: Percent Control, in vitro enzyme activity
T2 construct: 10% homogenates of CF1 male mouse liver; from tissue; host or cells: CF1 male mouse liver, 10% homogenate
Method: as §1, §2

c1ccc2c(c1)CNCc1ccccc1-2 [Compound 3, 3,4,5,6-dibenzohomopiperidine]
Cholesterol, concentration as a function of control [1]: 106 ± 5%
Neutral Lipids, concentration as a function of control [1]: 59 ± 5%
Phospholipids, concentration as a function of control [1]: 64 ± 3%
Protein, concentration as a function of control [1]: 106 ± 7%
Triglycerides, concentration as a function of control [1]: 40 ± 2%
Cholesterol, concentration as a function of control [2]: 103 ± 7%
Mg Lipid Wt, concentration as a function of control [2]: 102 ± 8%
Neutral Lipids, concentration as a function of control [2]: 108 ± 9%
Phospholipids, concentration as a function of control [2]: 108 ± 10%
Protein, concentration as a function of control [2]: 133 ± 8%
Triglycerides, concentration as a function of control [2]: 99 ± 7%
remaining activity at 50 µM ([3]; 50 μM): 68 ± 7%
remaining activity at 100 µM ([3]; 100 μM): 72 ± 5%
remaining activity at 200 µM ([3]; 200 μM): 98 ± 7%
remaining activity at 50 µM ([4]; 50 μM): 84 ± 6%
remaining activity at 100 µM ([4]; 100 μM): 100 ± 7%
remaining activity at 200 µM ([4]; 200 μM): 99 ± 5%
